Measured values from patent US20100273816A1, “Quinazoline Compounds” (priority 2007, published 2010).

What was measured:
[1] = target: T1, human LXRβ (Homo sapiens, UniProt P55055); assay: Ligand-binding test procedure for human LXRβ (3H T0901317 tracer, flash plates); conditions: biotinylated hLXRβ from E. coli extract, +4° C. over night, read-out: hLXRB binding assay Mean IC50
T1 construct: biotin (biotinylated); made in house; host or cells: E. coli (crude extract)
T1 sequence (P55055 1-460): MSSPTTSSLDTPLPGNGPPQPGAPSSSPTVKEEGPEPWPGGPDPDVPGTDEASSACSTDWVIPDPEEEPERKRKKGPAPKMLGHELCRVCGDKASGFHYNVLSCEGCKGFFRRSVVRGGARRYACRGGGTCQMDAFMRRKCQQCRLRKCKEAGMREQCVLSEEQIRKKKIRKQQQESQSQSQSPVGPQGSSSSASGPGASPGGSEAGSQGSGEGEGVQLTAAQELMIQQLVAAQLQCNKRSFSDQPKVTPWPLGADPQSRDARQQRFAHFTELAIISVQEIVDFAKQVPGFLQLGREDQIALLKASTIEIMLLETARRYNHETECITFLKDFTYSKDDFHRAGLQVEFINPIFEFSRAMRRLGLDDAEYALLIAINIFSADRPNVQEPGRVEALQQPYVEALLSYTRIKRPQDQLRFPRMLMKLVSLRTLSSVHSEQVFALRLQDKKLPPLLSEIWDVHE
Description: I. Ligand-Binding Test Procedure for Human LXRβ.
(§1) Buffer: 100 mM KCl, 100 mM TRIS (pH 7.4 at +4° C.), 8.6% glycerol, 0.1 mM PMSF*, 2 mM MTG*, 0.2% CHAPS (* not used in wash buffer)
Receptor source: E. coli extract from cells expressing biotinylated hLXRβ. Extract was made in a similar buffer as above, but with 50 mM TRIS.
(§2) Washed streptavidin and coated flash plates with wash buffer.
(§3) Diluted receptor extract to give Bmax ˜4000 cpm and add to the wells.
(§4) Wrapped the plates in aluminum foil and stored them at +4° C. over night.
(§5) Made a dilution series in DMSO of the test ligands.
(§6) Made a 5 nM solution of the radioactive tracer in buffer.
Mixed 250 μl diluted tracer with 50 of the test ligand from each concentration of the dilution series.
(§7) Washed the receptor-coated flash plates.
(§8) Added 200 μl per well of the ligand/radiolabel mixture to the receptor-coated flash plates.
(§9) Wrapped the plates in aluminum foil and incubate at +4° C. over night.
(§10) Aspirated wells, and wash the flashed plates. Sealed the plate.
(§11) Measured the remaining radioactivity in the plate.

[2] = target: T2, human LXRα (Homo sapiens, UniProt Q13133); assay: Ligand-binding test procedure for human LXRα (3H T0901317 tracer, flash plates); conditions: biotinylated hLXRα from E. coli extract, +4° C. over night, read-out: hLXRa binding assay Mean IC50
T2 construct: biotin (biotinylated); made in house; host or cells: E. coli (crude extract)
T2 sequence (Q13133 1-447): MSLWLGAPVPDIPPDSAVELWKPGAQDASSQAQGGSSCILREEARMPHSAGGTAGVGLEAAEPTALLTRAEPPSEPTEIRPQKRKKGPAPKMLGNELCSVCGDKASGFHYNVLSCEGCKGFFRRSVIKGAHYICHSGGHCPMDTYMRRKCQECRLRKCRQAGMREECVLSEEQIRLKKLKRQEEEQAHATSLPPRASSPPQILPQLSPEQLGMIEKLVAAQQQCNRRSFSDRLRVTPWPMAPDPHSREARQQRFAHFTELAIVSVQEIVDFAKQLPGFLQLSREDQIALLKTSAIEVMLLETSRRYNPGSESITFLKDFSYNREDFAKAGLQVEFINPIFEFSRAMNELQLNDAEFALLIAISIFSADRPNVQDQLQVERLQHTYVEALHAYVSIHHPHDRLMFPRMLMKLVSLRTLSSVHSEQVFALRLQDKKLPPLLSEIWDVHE
Description: II. Ligand-Binding Test Procedure for Human LXRα.
as §1
Receptor source: E. coli extract from cells expressing biotinylated hLXRα. Extract was made in a similar buffer as above, but with 50 mM TRIS.
as §2, §3, §4, §5, §6
Mixed 250 μl diluted tracer with 5 μl of the test ligand from each concentration of the dilution series.
as §7, §8, §9, §10, §11

Row | IC50 [1] | IC50 [2] | Compound
1 | 0.005 µM | 0.236 µM | CCS(=O)(=O)c1cccc(Oc2ccc(Cl)c(-c3ncnc4c(C(F)(F)F)cccc34)c2)c1 [Example 50, 4-{2-chloro-5-[3-(ethylsulfonyl)phenoxy]phenyl}-8-(trifluoromethyl)quinazoline]
2 | 0.014 µM | 0.284 µM | CS(=O)(=O)c1cccc(Oc2ccc(F)c(-c3ncnc4c(C(F)(F)F)cccc34)c2)c1 [Example 52, 4-{2-fluoro-5-[3-(methylsulfonyl)phenoxy]phenyl}-8-(trifluoromethyl)quinazoline]
3 | 0.008 µM | 0.233 µM | CCS(=O)(=O)c1cccc(Oc2ccc(F)c(-c3ncnc4c(C(F)(F)F)cccc34)c2)c1 [Example 53, 4-{5-[3-(ethylsulfonyl)phenoxy]-2-fluorophenyl}-8-(trifluoromethyl)quinazoline]
4 | 0.081 µM | 1.83 µM | CS(=O)(=O)c1cc(F)cc(Oc2ccc(F)c(-c3ncnc4c(Cl)cccc34)c2)c1 [Example 64, 8-chloro-4-{2-fluoro-5-[3-fluoro-5-(methylsulfonyl)phenoxy]phenyl}quinazoline]
5 | 0.152 µM | 2.95 µM | CCS(=O)(=O)c1cc(F)cc(Oc2ccc(F)c(-c3ncnc4c(Cl)cccc34)c2)c1 [Example 65, 8-chloro-4-{5-[3-(ethylsulfonyl)-5-fluorophenoxy]-2-fluorophenyl}quinazoline]
6 | 0.099 µM | 1.54 µM | CS(=O)(=O)c1cccc(COc2ccc(F)c(-c3ncnc4c(Cl)cccc34)c2)c1 [Example 66, 8-chloro-4-(2-fluoro-5-{[3-(methylsulfonyl)benzyl)oxy]phenyl}quinazoline]
7 | 0.036 µM | 0.712 µM | CCS(=O)(=O)c1cccc(Oc2ccc(F)c(-c3ncnc4c(Cl)cccc34)c2)c1 [Example 67, 8-chloro-4-{2-fluoro-5-[3-(ethylsulfonyl)phenoxy]phenyl}quinazoline]
8 | 0.015 µM | 0.597 µM | CC(C)S(=O)(=O)c1cccc(Oc2ccc(F)c(-c3ncnc4c(Cl)cccc34)c2)c1 [Example 68, 8-chloro-4-(2-fluoro-5-{[3-(1-methylethyl)sulfonyl]phenoxy}phenyl)quinazoline]
9 | 0.182 µM | 2.52 µM | O=S(=O)(CCCO)c1cccc(Oc2ccc(F)c(-c3ncnc4c(Cl)cccc34)c2)c1 [Example 73, 3-({3-[3-(8-chloroquinazolin-4-yl)-4-fluorophenoxy]phenyl}sulfonyl)propan-1-ol]
10 | 0.02 µM | 0.718 µM | CS(=O)(=O)c1cccc(Oc2ccc(F)c(-c3ncnc4c(Cl)cccc34)c2)c1 [Example 75, 8-chloro-4-{2-fluoro-5-[3-(methylsulfonyl)phenoxy]phenyl}quinazoline]
11 | 0.026 µM | 0.325 µM | CS(=O)(=O)c1cccc(Oc2ccc(Cl)c(-c3ncnc4c(Cl)cccc34)c2)c1 [Example 78, 8-chloro-4-{2-chloro-5-[3-(methylsulfonyl)phenoxy]phenyl}quinazoline]

More lines, now with the values behind:

Row | Compound | IC50 [1] | IC50 [2]
12 | CS(=O)(=O)c1cccc(Oc2ccc(Cl)c(-c3ncnc4c(C(F)(F)F)cccc34)c2)c1 [Example 49, 4-{2-chloro-5-[3-(methylsulfonyl)phenoxy]phenyl}-8-(trifluoromethyl)quinazoline] | 0.005 µM | 0.177 µM
13 | CC(C)S(=O)(=O)c1cccc(Oc2ccc(Cl)c(-c3ncnc4c(C(F)(F)F)cccc34)c2)c1 [Example 51, 4-{2-chloro-5-[3-(isopropylsulfonyl)phenoxy]phenyl}-8-(trifluoromethyl)quinazoline] | 0.002 µM | 0.119 µM
14 | CC(C)S(=O)(=O)c1cccc(Oc2ccc(F)c(-c3ncnc4c(C(F)(F)F)cccc34)c2)c1 [Example 54, 4-{2-fluoro-5-[3-(isopropylsulfonyl)phenoxy]phenyl}-8-(trifluoromethyl)quinazoline] | 0.005 µM | 0.176 µM
15 | CS(=O)(=O)c1cc(F)cc(Oc2ccc(F)c(-c3ncnc4c(C(F)(F)F)cccc34)c2)c1 [Example 55, 4-{2-fluoro-5-[3-fluoro-5-(methylsulfonyl)phenoxy]phenyl}-8-(trifluoromethyl)quinazoline] | 0.035 µM | 0.782 µM
16 | CS(=O)(=O)c1cccc(COc2ccc(F)c(-c3ncnc4c(C(F)(F)F)cccc34)c2)c1 [Example 56, 4-(2-fluoro-5-{[3-(methylsulfonyl)benzyl]oxy}phenyl)-8-(trifluoromethyl)quinazoline] | 0.044 µM | 0.787 µM
17 | CS(=O)(=O)c1cc(Cl)cc(Oc2ccc(F)c(-c3ncnc4c(C(F)(F)F)cccc34)c2)c1 [Example 57, 4-{5-[3-chloro-5-(methylsulfonyl)phenoxy]-2-fluorophenyl}-8-(trifluoromethyl)quinazoline] | 0.214 µM | 2.34 µM
18 | Cc1nc(-c2cc(Oc3cccc(S(C)(=O)=O)c3)ccc2Cl)c2cccc(C(F)(F)F)c2n1 [Example 58, 4-{2-chloro-5-[3-(methylsulfonyl)phenoxy]phenyl}-2-methyl-8-(trifluoromethyl)quinazoline] | 0.02 µM | 1.36 µM
19 | CCS(=O)(=O)c1cccc(Oc2ccc(Cl)c(-c3nc(C)nc4c(C(F)(F)F)cccc34)c2)c1 [Example 59, 4-{2-chloro-5-[3-(ethylsulfonyl)phenoxy]phenyl}-2-methyl-8-(trifluoromethyl)quinazoline] | 0.019 µM | 2.37 µM
20 | Cc1nc(-c2cc(Oc3cccc(S(=O)(=O)C(C)C)c3)ccc2Cl)c2cccc(C(F)(F)F)c2n1 [Example 60, 4-{2-chloro-5-[3-(isopropylsulfonyl)phenoxy]phenyl}-2-methyl-8-(trifluoromethyl)quinazoline] | 0.016 µM | 0.524 µM
21 | Cc1nc(-c2cc(Oc3cc(F)cc(S(C)(=O)=O)c3)ccc2Cl)c2cccc(C(F)(F)F)c2n1 [Example 61, 4-{2-chloro-5-[3-fluoro-5-(methylsulfonyl)phenoxy]phenyl}-2-methyl-8-(trifluoromethyl)quinazoline] | 0.049 µM | 1.79 µM
22 | CCS(=O)(=O)c1cc(F)cc(Oc2ccc(Cl)c(-c3nc(C)nc4c(C(F)(F)F)cccc34)c2)c1 [Example 62, 4-{2-chloro-5-[3-(ethylsulfonyl)-5-fluorophenoxy]phenyl}-2-methyl-8-(trifluoromethyl)quinazoline] | 0.063 µM | 1.43 µM
23 | Cc1nc(-c2cc(OCc3cccc(S(C)(=O)=O)c3)ccc2Cl)c2cccc(C(F)(F)F)c2n1 [Example 63, 4-(2-chloro-5-{[3-(methylsulfonyl)benzyl]oxy}phenyl)-2-methyl-8-(trifluoromethyl)quinazoline] | 0.181 µM | 3.38 µM
24 | O=S(=O)(CCCOC1CCCCO1)c1cccc(Oc2ccc(F)c(-c3ncnc4c(Cl)cccc34)c2)c1 (stereo not drawn) [Example 69, 8-chloro-4-[2-fluoro-5-(3-{[3-(tetrahydro-2H-pyran-2-yloxy)propyl]sulfonyl}phenoxy)phenyl]quinazoline] | 0.095 µM | 0.265 µM
25 | CS(=O)(=O)c1cccc(-c2cccc(-c3nc(C4CC4)nc4c(C(F)(F)F)cccc34)c2)c1 [Example 76, 2-cyclopropyl-4-[3′-(methylsulfonyl)biphenyl-3-yl]-8-(trifluoromethyl)quinazoline] | 0.153 µM | 0.714 µM
26 | COc1cccc2c(-c3cc(Oc4cccc(S(C)(=O)=O)c4)ccc3Cl)ncnc12 [Example 77, 4-{2-chloro-5-[3-(methylsulfonyl)phenoxy]phenyl}-8-methoxyquinazoline] | 0.344 µM | 10.4 µM
27 | O=S(=O)(CCCO)c1cccc(Oc2ccc(F)c(-c3ncnc4c(C(F)(F)F)cccc34)c2)c1 [Example 93, 3-[(3-{4-fluoro-3-[8-(trifluoromethyl)quinazolin-4-yl]phenoxy}phenyl)sulfonyl]propan-1-ol] | 0.047 µM | 0.714 µM
